Test results published in the supplement of paper PMC10307832.

How the values were obtained:
Assay in all cases: relative viability (nuclei count vs DMSO), 5 days (fraction); higher = more cells survive
[1] = compound: C=CCc1cccc(/C=N/NC(=O)CN2CCN(Cc3ccccc3)CC2)c1O [PAC-1] + COc1cc2c(Oc3ccc(NC(=O)C4(C(=O)Nc5ccc(F)cc5)CC4)cc3F)ccnc2cc1OCCCN1CCOCC1 [Foretinib] (partner 0.25 µM)
Procedure, shortened: (§1)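 One day after seeding in 1536-well plates, lung cancer cell lines were dosed by pin tool. Dosing was either single-drug or a fixed anchor-drug dose plus five library-drug doses (not always all listed) in √10 steps. After 5 days, nuclei were stained in one fix-and-stain step and counted on 4× images, and relative viability is the nuclei count of treated wells over that of vehicle wells, given as the median of duplicate plates.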

[2] = compound: C=CC(=O)N1CCC[C@@H](n2nc(-c3ccc(Oc4ccccc4)cc3)c3c(N)ncnc32)C1 [Ibrutinib] + CCNC(=O)c1noc(-c2cc(C(C)C)c(O)cc2O)c1-c1ccc(CN2CCOCC2)cc1 [Luminespib] (partner 0.01 µM)
Procedure, shortened: as §1

[3] = compound: C=CC(=O)Nc1cc(-n2c(=O)ccc3cnc4ccc(-c5ccc(NS(C)(=O)=O)cc5)cc4c32)ccc1C [BMX-IN-1] + O=C(CCCCCCC(=O)Nc1ccccc1)NO [Vorinostat] (partner 1 µM)
Procedure, shortened: as §1

[4] = compound: C=CCc1cccc(/C=N/NC(=O)CN2CCN(Cc3ccccc3)CC2)c1O [PAC-1] + CS(=O)(=O)N1CCN(Cc2cc3nc(-c4cccc5[nH]ncc45)nc(N4CCOCC4)c3s2)CC1 [Pictilisib] (partner 1 µM)
Procedure, shortened: as §1

Cell Line	relative viability ([1]; first compound 0.02 µM)	relative viability ([1]; first compound 0.06325 µM)	relative viability ([1]; first compound 0.2 µM)	relative viability ([1]; first compound 2 µM)	relative viability ([2]; first compound 0.01581 µM)	relative viability ([2]; first compound 0.05 µM)	relative viability ([2]; first compound 0.1581 µM)	relative viability ([2]; first compound 0.5 µM)	relative viability ([3]; first compound 0.02 µM)	relative viability ([3]; first compound 0.2 µM)	relative viability ([3]; first compound 0.6325 µM)	relative viability ([3]; first compound 2 µM)	relative viability ([4]; first compound 0.02 µM)	relative viability ([4]; first compound 0.06325 µM)	relative viability ([4]; first compound 0.2 µM)	relative viability ([4]; first compound 2 µM)	relative viability ([2]; first compound 0.005 µM)
HOP-62	1.1	1.13	1.1	1.17	0.881	0.958	0.935	0.918	0.742	0.755	0.613	0.559	0.653	0.573	0.689	0.726	
IA-LM	1.17	1.19	1.11	1.17					0.797	0.807	1.03	0.722	0.339	0.363	0.355	0.456	
LC-2-ad	0.968	0.875	0.887	0.954	1.01	1.14	1.13		0.74	0.766	0.674	0.783	0.523	0.588	0.511	0.56	1.06
LCLC-97TM1	0.989	1	0.945	0.955	0.656	0.798	0.867	0.735	0.724	1.08	1.04	0.842		0.206	0.178	0.231	0.795
LCLC-103H	0.734	0.785	0.713	0.689	0.905	0.896	1.09	0.897	0.724	0.823	0.882	0.842	0.549	0.612	0.592	0.638	1
LK-2	1.11	1.16	0.858	1.12	0.183	0.176	0.166	0.164	0.289	0.151	0.282	0.365	0.612	0.607	0.642	0.502	
LOU-NH91	0.919	0.931	0.982	0.898	0.346	0.267	0.294	0.309		0.939	1.05	0.915	0.494	0.521	0.545	0.514	0.333
LU99A	0.91	0.854	0.818	0.774	0.24	0.285	0.249	0.248	0.501	0.421	0.669	0.612	0.32	0.271	0.313	0.322	0.191
LXF-289	0.907	1.02	1	0.934	0.673	0.722	0.692	0.643	0.824	0.876	0.912	0.882	0.846	0.727	0.739	0.792	0.685
NCI-H23	1.08	0.954	0.844	0.965	0.22			0.248	0.654	0.728	0.602	0.564	0.365	0.461	0.414	0.473	
NCI-H322M	0.859	0.948	0.986	0.887	0.726	0.785	0.752	0.473	0.872	0.983	1.01	0.876	0.4	0.513	0.499	0.332	0.648
NCI-H358	0.622	0.573	0.645	0.574	0.253	0.306	0.267	0.174	0.816	0.811	0.788	0.652	0.355	0.396	0.376	0.367	0.366
NCI-H441	0.977	0.943	0.817	0.896	0.359	0.266	0.36	0.235	0.691	1.03	0.903	0.778	0.447	0.583	0.552	0.377	0.362
NCI-H460	1.08	0.915	0.954	0.959	0.0329	0.0328	0.0586	0.0349	1.05		1.11	0.782	0.281	0.405	0.355	0.39	0.0343
NCI-H520	0.818	0.769	0.682	0.723	0.237	0.247	0.232	0.269	0.8	0.718	0.666	0.696	0.266	0.303	0.256	0.35	0.252
NCI-H522					1.05	1.17	1.07	0.922	0.979	0.786	0.832	0.968					1.11
NCI-H1299	1.14	1.04	1.04	1.06									0.876	0.763	0.815	0.657	
NCI-H1563	0.928	1	0.976	0.935	0.524	0.519	0.519	0.53					0.641	0.695	0.752	0.63	0.538
NCI-H1623	0.86	0.851	0.961	0.868	0.505	0.486	0.414	0.304									0.382
NCI-H1648									0.522	1	0.3	0.503					
NCI-H1703	0.359	0.434	0.337	0.309									0.245	0.267	0.249	0.205	
NCI-H1792					0.486	0.485	0.364	0.367					0.319	0.279	0.287	0.285	
NCI-H2342	1.15	1.04	1.03	1.05	0.608	0.707	0.655	0.497	0.827	0.728	0.71	0.65					0.719
SW 900	1.14	0.976	0.864	0.717		0.159	0.175	0.19	0.659	0.548	0.678	0.47					
